Test results published in US20060100154A1, “Long-acting gonadotropin-releasing hormone analogs and methods of use thereof” (YEDA RESEARCH AND DEVELOPMENT CO, priority 2005, published 2006).
Square brackets hold non-standard residues; d marks the D form. Peptide text beside a SMILES is read from it. * marks the point of attachment. NQ = N-(2-chloro-1,4-naphthoquinonyl)-β-alanine, O=C1C(Cl)=C(NCCC(=O)*)C(=O)c2ccccc21; Glutaryl(OAqm) = O=C(CCCC(=O)*)OCc1ccc2c(c1)C(=O)c1ccccc1C2=O; X1 = O=C1c2cc(O)cc(O)c2C(=O)c2c(O)cc(C(=O)*)cc21; d(pGlu) = O=C1CC[C@H](C(=O)O)N1; pGlu = O=C1CC[C@@H](C(=O)O)N1; Emo = not defined here

Legend:
[1] = literature ref 14; cited from earlier work
[2] = Relative hydrophobicity by elution from RP-18 HPLC column; assay type: physicochemical; conditions: percent of buffer B in which the analog was eluted from RP-18 column
Text: All chemicals and reagents were of analytical grade. Rink amide resin, 9-fluorenylmethoxycarbonyl (Fmoc) protected amino acid derivatives, and all the reagents for solid-phase peptide synthesis were purchased from Novabiochem (Läufelfingen, Switzerland). Side-chain protecting groups employed for peptide synthesis were as follows: Arg, 2,2,4,6,7-pentamethyldihydrobenzofuran-5-sulfonyl (Pbf); His, trityl (Trt); D-Lys, 4-methyltrityl (Mtt) or tert-butyloxycarbonyl (Boc); Trp, tert-butyloxycarbonyl (Boc); Ser and Tyr, tert-butyl (tBu). Reversed phase HPLC was performed on a Spectra-Physics SP-8800 liquid chromatography system equipped with an Applied Biosystems 757 variable wavelength absorbance detector. HPLC prepacked columns were: Lichrocart, containing Lichrosorb RP-18 (250×10 mm; 7 μm, Merck, Darmstadt, Germany) for semi-preparative purification and Lichrospher 100 RP-18 (250×4 mm; 5 μm, Merck, Darmstadt, Germany) and wide pore butyl C4 (250×4.6 mm; 5 μm, J. T. Baker Inc., Phillipsburg, N.J.) for analytical purposes. HPLC purification and analysis were achieved by using a linear gradient established between 0.1% trifluoroacetic acid […] in water as buffer A and 0.1% TFA in 75% aqueous acetonitrile as buffer B. Eluent composition was 10-100% B over 40 mlin, using RP-18 column, and a gradient of 0-100% B over 40 min employing a wide pore butyl (C4) column. N-(2noro-1,4-naphtoqumonyl)-β-alanine (NQ), 1,6,8-Trihydroxy-3-carboxylic acid-anthraquinone (Emo) and 2-hydroxymethyl-anthraquinone hemiglutarate (AntrQ) were synthesized as described^14,24,27 (for chemical structure see FIG. 1).

[3] = target: T1, rat pituitary GnRH receptors (Rattus norvegicus, UniProt P30969); experiment: Displacement binding assay with 125I[D-Lys6]GnRH on rat pituitary membranes; conditions: for increase of binding affinity to GnRH receptors compared to the parent peptide: vs [D-Lys6]GnRH; for binding affinity to GnRH receptors (in words): FIG. 11; for IC50: Table 3, estimated IC50, 125I-[D-Lys6]GnRH tracer
T1 construct: from tissue; host or cells: rat pituitary membranes (Wistar-derived rats)
T1 sequence (P30969 1-327): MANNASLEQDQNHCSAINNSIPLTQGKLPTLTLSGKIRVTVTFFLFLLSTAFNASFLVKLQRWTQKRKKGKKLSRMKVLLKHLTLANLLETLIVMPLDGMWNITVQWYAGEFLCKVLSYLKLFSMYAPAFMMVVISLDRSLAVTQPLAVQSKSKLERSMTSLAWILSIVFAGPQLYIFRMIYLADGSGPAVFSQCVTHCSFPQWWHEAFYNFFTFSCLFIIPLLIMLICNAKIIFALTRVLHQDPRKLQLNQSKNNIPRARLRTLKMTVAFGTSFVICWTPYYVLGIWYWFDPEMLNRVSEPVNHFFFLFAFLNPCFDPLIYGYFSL
Description: Specific binding was calculated by subtracting the non-specific binding from the maximal binding, determined in the absence of any competing peptide. Results are the mean of two experiments carried out in triplicates. SEM values are omitted for clarity (FIG. 3).

[4] = test system: human breast and prostate cancer; conditions: literature ref 14; cited from earlier work
LH release = experiment: In vivo LH release after intraperitoneal administration; parameters: species or system rat; conditions: 20 nmol/rat
Description: The ability of [D-Lys^6(Emo)]GnRH to bind GnRH receptors and promote LH release in vitro, prompted the evaluation of its in vivo activity.
Blood samples were withdrawn by cardiac puncture under light ether anesthesia at the indicated time intervals, and serum LH levels were determined by RIA as described above (FIG. 6). Results are the mean±SEM of LH concentrations in the serum of five animals/experimental group. The LH concentration was determined using three different dilutions of each serum sample. Similar results were obtained in two other experiments.

αT3-1 cells [5] = experiment: In vitro toxicity / phototoxicity (XTT cell survival); assay type: cell-based, mouse
Description: αT3-1 cells (50,000 cells/well) were plated in 96-well tissue culture plates in 0.1 mL of complete medium. After 24 h the medium was changed and cells were incubated in the same medium (without serum and phenol red) containing different concentrations of the tested compounds for 4 h at 37° C. The cells were then washed (×3) with PBS and illuminated (λmax=400 nm) in PBS. The fluence rate was 14.3 mW cm^−2 with a total fluence of 17 J cm^−2. Following illumination the media were replaced by complete medium and the plates were incubated for additional 24 h at 37° C. Cell survival was determined using the XTT (Biological Industries, Beit-Haemek, Israel) kit following the manufacture's protocol. Values are expressed as % survival.

[6] = target: T2, human serum albumin (HSA) (Homo sapiens, UniProt P02768); experiment: Binding to HSA; assay type: in vitro ADME; conditions: 37° C., 3 h; FIG. 8
T2 construct: purchased Sigma, St. Louis, Mo
Description: The concentration of HSA in the solution was determined using a molar extinction coefficient of 39,000 M^−1 cm^−1 at 277.5 nm^33. The unbound compound was then separated from the HSA solution by applying it on to a Centricon® concentrator column (Amicon Inc., Beverly, Mass.) with a band pass membrane of […] according to the manufacture's protocol. The HSA bound compound (˜20 μL) was then precipitated by adding it to acetonitrile (1 mL). The supernatant was kept and the precipitate was dissolved in PBS (100 μL) and re-precipitated. The combined supernatants were evaporated, the residue was dissolved in water containing 0.1% TFA (buffer A) and analyzed by HPLC to determine the amount of the tested compounds. Results represent the mean of two experiments (FIG. 8).

αT3-1 cells [7] = experiment: DNA fragmentation assay; assay type: cell-based, mouse; conditions: 10 μM, FIG. 10
Description: FIG. 10. DNA cleavage in cells treated with [D-Lys^6(Emo)]GnRH and emodic acid. αT3-1 cells were incubated; in darkness with 10 μM of the tested compounds, washed and illuminated. After 24 h of incubation DNA was isolated and analyzed by gel electrophoresis. Lanes 1, 3 and 5 represent DNA of cells treated with 1% DMSO in PBS, emodic acid or [D-Lys^6(Emo)]GnRH, respectively, followed by illumination. Lane 2, 4 and 6 represent cells treated with 1% DMSO in PBS, emodic acid, or [D-Lys^6(Emo)]GnRH, respectively, in darkness.
αT3-1 cells (×10^6/dish) were incubated in phenol red and serum free complete medium (37° C., 5% CO2) with the tested compounds for 5 h in the dark. Cells were then washed with PBS (×3) and illuminated or remained in darkness as described earlier. The media were then replaced by complete medium and cells were incubated for additional 24 h. DNA was then isolated, using Wizard® genomic DNA purification kit (Promega, Madison, Wis.) following the company's protocol and analyzed by gel electrophoresis (0.4% cross linked agarose, ethidium bromide staining).

[8] = literature ref 5; cited from earlier work
[9] = target: T3, rat pituitary GnRH receptor (rat, UniProt P30969 1-327); experiment: displacement of 125I[D-Lys6]GnRH from rat pituitary membranes
T3 construct: whole, on cells; Native receptor; also called GnRH receptors; rat pituitary receptors
T3 sequence (looked up): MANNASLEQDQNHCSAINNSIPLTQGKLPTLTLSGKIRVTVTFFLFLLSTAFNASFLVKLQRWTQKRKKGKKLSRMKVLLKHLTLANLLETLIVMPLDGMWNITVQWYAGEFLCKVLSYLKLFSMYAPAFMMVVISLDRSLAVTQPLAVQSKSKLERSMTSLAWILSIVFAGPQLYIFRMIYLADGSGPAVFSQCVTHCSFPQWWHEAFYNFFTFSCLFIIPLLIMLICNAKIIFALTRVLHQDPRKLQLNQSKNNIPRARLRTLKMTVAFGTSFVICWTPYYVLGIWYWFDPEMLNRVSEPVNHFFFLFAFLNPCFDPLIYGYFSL
Description: Briefly, membranes were incubated for 90 min at 4° C. with ¹²⁵I[D-Lys⁶]GnRH and with the unlabeled peptides. Non-specific binding was defined as the residual binding in the presence of excess [D-Lys⁶]GnRH (1 μM). Specific binding was calculated by subtracting the non-specific binding from the maximal binding, determined in the absence of any competing peptide. Results are the mean of two experiments carried out in triplicates. SEM values are omitted for clarity (FIG. 3).

[10] = target: T3, rat pituitary GnRH receptor; experiment: displacement of 125I[D-Lys6]GnRH from proestrous rat pituitary membranes

T2 sequence (P02768 25-609): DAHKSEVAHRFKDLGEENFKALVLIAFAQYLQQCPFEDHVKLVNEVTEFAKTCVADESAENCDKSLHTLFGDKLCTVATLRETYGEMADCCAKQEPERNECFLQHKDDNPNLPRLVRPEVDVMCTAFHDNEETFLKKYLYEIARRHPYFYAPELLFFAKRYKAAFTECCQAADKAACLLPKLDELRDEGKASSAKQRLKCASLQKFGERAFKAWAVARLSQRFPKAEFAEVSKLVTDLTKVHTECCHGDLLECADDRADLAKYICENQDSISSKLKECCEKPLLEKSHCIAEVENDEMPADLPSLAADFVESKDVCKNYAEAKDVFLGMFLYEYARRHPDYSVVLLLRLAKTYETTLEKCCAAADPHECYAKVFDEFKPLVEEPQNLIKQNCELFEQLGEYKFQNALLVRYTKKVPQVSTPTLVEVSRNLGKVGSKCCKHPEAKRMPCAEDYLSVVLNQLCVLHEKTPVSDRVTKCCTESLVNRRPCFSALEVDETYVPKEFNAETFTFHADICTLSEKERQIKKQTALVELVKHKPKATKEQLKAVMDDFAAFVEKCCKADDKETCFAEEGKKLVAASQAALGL

CC(C)C[C@H](NC(=O)[C@@H](CCCCNC(=O)CCCC(=O)OCc1ccc2c(c1)C(=O)c1ccccc1C2=O)NC(=O)[C@H](Cc1ccc(O)cc1)NC(=O)[C@H](CO)NC(=O)[C@H](Cc1c[nH]c2ccccc12)NC(=O)[C@H](Cc1c[nH]cn1)NC(=O)[C@@H]1CCC(=O)N1)C(=O)N[C@@H](CCCNC(=N)N)C(=O)N1CCC[C@H]1C(=O)NCC(N)=O [[D-Lys^6(AntrQ)]GnRH, [D-Lys^6(2-hydroxymethyl-anthra-quinone hemiglutarate)] GnRH]
biological activity relative to the parent peptide [1]: five-fold higher
Hydrophobicity (% B) [2]: 84 % B
increase of binding affinity to GnRH receptors compared to the parent peptide [3]: 5 folds
growth of human breast and prostate cancer [4]: inhibited the growth

CC(C)C[C@H](NC(=O)[C@@H](CCCCNC(=O)c1cc(O)c2c(c1)C(=O)c1cc(O)cc(O)c1C2=O)NC(=O)[C@H](Cc1ccc(O)cc1)NC(=O)[C@H](CO)NC(=O)[C@@H](Cc1c[nH]c2ccccc12)NC(=O)[C@@H](Cc1ccccc1)NC(=O)[C@H]1CCC(=O)N1)C(=O)N[C@@H](CCCNC(=N)N)C(=O)N1CCC[C@H]1C(=O)NCC(N)=O [[D-Lys^6(Emo)]Antg, [D-Pyr^1, D-Phe^2, D-Trp^3, D-Lys^6(Emo)]GnRH] ([d(pGlu)][dF][dW]SY[dK](X1)LRPG-NH2)
binding affinity to GnRH receptors (in words) [3]: lower binding affinity
IC50 [3]: 150 nM

CC(C)C[C@H](NC(=O)[C@@H](CCCCNC(=O)CCNC1=C(Cl)C(=O)c2ccccc2C1=O)NC(=O)[C@H](Cc1ccc(O)cc1)NC(=O)[C@H](CO)NC(=O)[C@H](Cc1c[nH]c2ccccc12)NC(=O)[C@H](Cc1c[nH]cn1)NC(=O)[C@@H]1CCC(=O)N1)C(=O)N[C@@H](CCCNC(=N)N)C(=O)N1CCC[C@H]1C(=O)NCC(N)=O [[D-Lys^6(NQ)]GnRH, [D-Lys^6(N-(2-chloro-1,4-naphthoquinonyl)-β-alanyl)]GnRH]
Hydrophobicity (% B) [2]: 59 % B
increase of binding affinity to GnRH receptors compared to the parent peptide [3]: 2 folds

CC(C)C[C@H](NC(=O)[C@@H](CCCCN)NC(=O)[C@H](Cc1ccc(O)cc1)NC(=O)[C@H](CO)NC(=O)[C@@H](Cc1c[nH]c2ccccc12)NC(=O)[C@@H](Cc1ccccc1)NC(=O)[C@H]1CCC(=O)N1)C(=O)N[C@@H](CCCNC(=N)N)C(=O)N1CCC[C@H]1C(=O)NCC(N)=O [[D-Lys^6]Antg, [D-Pyr^1, D-Phe^2, D-Trp^3, D-Lys^6]GnRH] ([d(pGlu)][dF][dW]SY[dK]LRPG-NH2)
IC50 [3]: 45 nM

CC(C)C[C@H](NC(=O)[C@@H](CCCCN)NC(=O)[C@H](Cc1ccc(O)cc1)NC(=O)[C@H](CO)NC(=O)[C@H](Cc1c[nH]c2ccccc12)NC(=O)[C@H](Cc1c[nH]cn1)NC(=O)[C@@H]1CCC(=O)N1)C(=O)N[C@@H](CCCNC(=N)N)C(=O)N1CCC[C@H]1C(=O)NCC(N)=O [[D-Lys^6]GnRH]
Hydrophobicity (% B) [2]: 37 % B
increase in serum LH levels at higher dose (LH release): larger increase in serum LH levels

O=C(O)c1cc(O)c2c(c1)C(=O)c1cc(O)cc(O)c1C2=O [emodic acid]
phototoxicity to αT3-1 cells (αT3-1 cells [5]; 10 μM, illuminated, FIG. 9): significant phototoxicity
toxicity to αT3-1 cells in the dark (αT3-1 cells [5]; incubated in the dark): did not show any toxicity
binding to HSA [6]: binds to HSA
DNA fragmentation in the dark (αT3-1 cells [7]; darkness): did not cause any DNA fragmentation
DNA fragmentation upon illumination (αT3-1 cells [7]; illuminated): induced DNA fragmentation

[D-Pyr^1, D-Phe^2, D-Trp^3, D-Lys^6]GnRH ([d(pGlu)][dF][dW]SY[dK]LRPG-NH2; SMILES CC(C)C[C@H](NC(=O)[C@@H](CCCCN)NC(=O)[C@H](Cc1ccc(O)cc1)NC(=O)[C@H](CO)NC(=O)[C@@H](Cc1c[nH]c2ccccc12)NC(=O)[C@@H](Cc1ccccc1)NC(=O)[C@H]1CCC(=O)N1)C(=O)N[C@@H](CCCNC(=N)N)C(=O)N1CCC[C@H]1C(=O)NCC(N)=O)
binding affinity to GnRH receptors (in words) [3]: lower binding affinity to GnRH receptor as compared to [D-Lys^6]GnRH

pGlu-His-Trp-Ser-Tyr-Gly-Leu-Arg-Pro-Gly-NH2 [GnRH]
half-life time in the general circulation [8]: 2 to 4 min

B1: [D-Lys^6(2-hydroxymethyl-anthraquinone hemiglutarate)]GnRH (peptide)
peptide: [pGlu]HWSY[dK](Glutaryl(OAqm))LRPG-NH2
notes: Quinone conjugate of [D-Lys6]GnRH; also called [D-Lys^6(AntrQ)]GnRH; [D-Lys^6(AntQ)]GnRH
IC50 [9]: 0.02 nM

B2: [D-Lys^6(N-(2-chloro-1,4-naphthoquinonyl)-β-alanyl)]GnRH (peptide)
peptide: [pGlu]HWSY[dK](NQ)LRPG-NH2
notes: Quinone conjugate of [D-Lys6]GnRH; also called [D-Lys^6(NQ)]GnRH
IC50 [9]: 0.09 nM

B3: [D-Lys^6(1,3,8-trihydroxy-6-carboxy-anthraquinone)]GnRH (peptide)
peptide: [pGlu]HWSY[dK](Emo)LRPG-NH2
modifications: not fully specified; printed as [D-Lys^6(1,3,8-trihydroxy-6-carboxy-anthraquinone)]GnRH; reading uncertain
notes: Emodic acid conjugate of [D-Lys6]GnRH, an agonist; also called [D-Lys^6(Emo)]GnRH; [D-(Emo)]GnRH
IC50 [10]: 2.6 nM
IC50 [9]: 0.25 nM
